Data reported in article PMC11424024 (Methods in enzymology, 2024).

Key:
Rv0097 = Rv0097 (Mycobacterium tuberculosis, UniProt P9WG83)
ScoE = ScoE (Streptomyces coeruleorubidus, UniProt A0A3B6UEU3); assay: LC-HRMS; format: biochemical; conditions: α-KG, Fe(II); no INBA formed, only a trace of 2

Chain of Rv0097 (P9WG83 whole entry): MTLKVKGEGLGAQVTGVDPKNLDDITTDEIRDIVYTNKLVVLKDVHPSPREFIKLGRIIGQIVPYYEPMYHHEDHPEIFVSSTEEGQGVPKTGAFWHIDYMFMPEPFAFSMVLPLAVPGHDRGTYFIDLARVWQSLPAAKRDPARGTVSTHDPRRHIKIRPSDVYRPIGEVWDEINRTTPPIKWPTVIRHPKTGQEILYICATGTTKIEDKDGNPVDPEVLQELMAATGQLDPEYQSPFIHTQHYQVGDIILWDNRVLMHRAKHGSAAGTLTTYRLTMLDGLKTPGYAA

SMILES | LC-HRMS of INDA formation (Rv0097) | LC-HRMS; glyoxylate derivatization with 2-nitrophenylhydrazine (ScoE)
CCCCCCCC(CC(=O)O)NCC(=O)O (racemic) [CADA, 3-[(carboxymethyl)amino]decanoic acid] | We reconstituted the activity of Rv0097 using the surrogate substrate CADA | –
C[C@H](CC(=O)O)NCC(=O)O [CABA, (R)-3-((carboxymethyl)amino)butanoic acid] | – | Y96F ScoE mutant revealed that it was unable to synthesize INBA from CABA
